{"source": "paper PMC6156078", "about": "“Thalidomide promotes degradation of SALL4, a transcription factor implicated in Duane Radial Ray syndrome” (eLife, 2018)", "key": {"SALL4 [1]": {"biological_target": "T1, SALL4 (Homo sapiens, UniProt Q9UJQ4)", "test": "TMT proteomics H9 hESC: SALL4 abundance", "assay_type": "cell-based", "settings": "H9 hES cells, 5 h vs DMSO; thalidomide 10 µM, lenalidomide 5 µM, pomalidomide 1 µM", "source_text": "(§1) We established a mass spectrometry-based workflow (Figure 1—figure supplement 1A) to detect IMiD-induced protein degradation in hESC.\n(§2) Proteins were precipitated using methanol/chloroform."}, "FAM83F": {"biological_target": "FAM83F (Homo sapiens, UniProt Q8NEG4)", "test": "TMT proteomics H9 hESC: FAM83F abundance", "assay_type": "cell-based", "settings": "H9 hES cells, 5 h vs DMSO; thalidomide 10 µM, lenalidomide 5 µM, pomalidomide 1 µM", "source_text": "as §1, §2"}, "ZBTB39 [2]": {"biological_target": "T2, ZBTB39 (Homo sapiens, UniProt O15060+Q96SW2)", "test": "TMT proteomics H9 hESC: ZBTB39 abundance", "assay_type": "cell-based", "settings": "H9 hES cells, 5 h vs DMSO; thalidomide 10 µM, lenalidomide 5 µM, pomalidomide 1 µM", "source_text": "as §1, §2"}, "DTWD1": {"biological_target": "DTWD1 (Homo sapiens, UniProt Q8N5C7+Q96SW2)", "test": "TMT proteomics H9 hESC: DTWD1 abundance", "assay_type": "cell-based", "settings": "H9 hES cells, 5 h vs DMSO; thalidomide 10 µM, lenalidomide 5 µM, pomalidomide 1 µM", "source_text": "as §1, §2"}, "VRTN": {"biological_target": "T3, VRTN (Homo sapiens, UniProt Q9H8Y1)", "T3 construct": "endogenous in cells; host or cells: H9 hESC", "T3 sequence (Q9H8Y1 whole entry)": "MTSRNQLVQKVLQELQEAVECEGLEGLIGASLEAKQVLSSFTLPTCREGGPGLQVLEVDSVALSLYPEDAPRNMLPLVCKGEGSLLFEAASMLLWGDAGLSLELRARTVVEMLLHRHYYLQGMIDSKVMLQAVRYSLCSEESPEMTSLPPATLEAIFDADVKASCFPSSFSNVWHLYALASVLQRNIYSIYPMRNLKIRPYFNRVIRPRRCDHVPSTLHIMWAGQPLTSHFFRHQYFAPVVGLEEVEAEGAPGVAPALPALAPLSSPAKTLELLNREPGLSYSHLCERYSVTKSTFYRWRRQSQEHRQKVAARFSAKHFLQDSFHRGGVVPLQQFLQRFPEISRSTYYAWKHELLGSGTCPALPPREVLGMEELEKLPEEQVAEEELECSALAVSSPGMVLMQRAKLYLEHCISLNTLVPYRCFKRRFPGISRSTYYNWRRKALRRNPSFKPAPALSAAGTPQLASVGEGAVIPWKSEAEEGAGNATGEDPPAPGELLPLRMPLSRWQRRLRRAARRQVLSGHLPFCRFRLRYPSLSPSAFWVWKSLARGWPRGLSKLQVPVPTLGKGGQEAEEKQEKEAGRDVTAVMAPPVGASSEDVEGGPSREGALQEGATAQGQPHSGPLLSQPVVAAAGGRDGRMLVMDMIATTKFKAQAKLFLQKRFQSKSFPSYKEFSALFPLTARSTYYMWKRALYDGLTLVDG", "test": "TMT proteomics H9 hESC: VRTN abundance", "assay_type": "cell-based", "settings": "H9 hES cells, 5 h vs DMSO; thalidomide 10 µM, pomalidomide 1 µM", "source_text": "as §1, §2"}, "[3]": {"system": "IMiD-dependent neo-substrates", "test": "TMT proteomics profiling of IMiD-dependent neo-substrates (hESC, Kelly, SK-N-DZ, MM1s)", "assay_type": "cell-based, human", "source_text": "as §1, §2"}, "SALL4 [4]": {"system": "SALL4", "test": "Western blot of SALL4 in CRBN-/- Kelly and HEK293T cells", "assay_type": "cell-based, human", "settings": "increasing concentrations, 24 h"}, "[5]": {"biological_target": "hsSALL4ZnF2 / DDB1∆B-CRBN (Homo sapiens, UniProt Q96SW2+Q9UJQ4)", "test": "TR-FRET IMiD-dependent binding of SALL4ZnF2 to CRBN", "settings": "DDB1∆B-CRBN 200 nM, hsSALL4ZnF2 100 nM", "source_text": "The TR-FRET signal of each data point was extracted by calculating the 520/490 nm ratios."}, "mmSALL4": {"biological_target": "T4, mmSALL4 (Mus musculus, UniProt Q8BX22)", "T4 construct": "endogenous in cells; host or cells: TC1 mouse embryonic stem cells", "T4 sequence (Q8BX22 whole entry)": "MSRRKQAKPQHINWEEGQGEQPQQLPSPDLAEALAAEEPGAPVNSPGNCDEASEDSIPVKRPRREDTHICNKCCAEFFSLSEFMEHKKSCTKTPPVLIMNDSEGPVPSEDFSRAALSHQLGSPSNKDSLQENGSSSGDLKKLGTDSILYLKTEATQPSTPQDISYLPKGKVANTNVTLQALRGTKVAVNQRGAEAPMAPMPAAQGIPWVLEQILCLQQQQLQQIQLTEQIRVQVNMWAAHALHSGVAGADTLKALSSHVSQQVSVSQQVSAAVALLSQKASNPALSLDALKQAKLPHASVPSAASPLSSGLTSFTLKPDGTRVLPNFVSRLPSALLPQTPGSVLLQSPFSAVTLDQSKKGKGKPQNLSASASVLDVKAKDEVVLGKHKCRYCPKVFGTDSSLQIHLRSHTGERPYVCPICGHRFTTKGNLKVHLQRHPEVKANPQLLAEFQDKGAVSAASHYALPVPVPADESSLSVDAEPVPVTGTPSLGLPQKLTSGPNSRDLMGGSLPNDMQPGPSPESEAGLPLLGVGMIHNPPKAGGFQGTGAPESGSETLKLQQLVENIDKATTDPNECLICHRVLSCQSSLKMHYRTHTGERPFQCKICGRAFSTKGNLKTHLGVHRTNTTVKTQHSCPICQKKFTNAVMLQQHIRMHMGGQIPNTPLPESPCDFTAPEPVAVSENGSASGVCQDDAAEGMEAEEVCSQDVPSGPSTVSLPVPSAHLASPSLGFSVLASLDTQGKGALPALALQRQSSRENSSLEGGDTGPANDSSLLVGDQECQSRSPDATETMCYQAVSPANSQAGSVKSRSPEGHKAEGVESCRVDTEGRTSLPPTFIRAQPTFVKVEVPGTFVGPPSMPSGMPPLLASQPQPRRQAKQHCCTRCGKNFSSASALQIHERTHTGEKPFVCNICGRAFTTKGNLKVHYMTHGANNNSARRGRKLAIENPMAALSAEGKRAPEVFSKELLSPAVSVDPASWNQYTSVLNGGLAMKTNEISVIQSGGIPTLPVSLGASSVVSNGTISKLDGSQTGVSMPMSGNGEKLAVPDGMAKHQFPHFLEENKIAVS", "test": "Western blot of mmSALL4 in mouse embryonic stem cells", "assay_type": "cell-based", "settings": "increasing concentrations, 24 h"}, "SALL4 [6]": {"biological_target": "T1, SALL4", "settings": "Kelly cells"}, "[7]": {"settings": "typical dose 200–400 mg thalidomide, 25 mg lenalidomide, 2 mg pomalidomide, ref Chen et al., 2017, Hoffmann et al., 2013, Teo et al., 2004, cited from earlier work"}, "IKZF1": {"biological_target": "IKZF1 (Homo sapiens, UniProt Q13422+Q96SW2)", "test": "TMT proteomics MM1s cells: IKZF1 abundance", "settings": "5 h vs DMSO, thalidomide 10 µM, lenalidomide 5 µM, pomalidomide 1 µM"}, "IKZF3": {"biological_target": "IKZF3 (Homo sapiens, UniProt Q96SW2+Q9UKT9)", "test": "TMT proteomics MM1s cells: IKZF3 abundance", "settings": "5 h vs DMSO, thalidomide 10 µM, lenalidomide 5 µM, pomalidomide 1 µM"}, "RAB28 [8]": {"biological_target": "T5, RAB28 (Homo sapiens, UniProt P51157)", "test": "TMT proteomics MM1s cells: RAB28 abundance", "settings": "5 h vs DMSO, thalidomide 10 µM, lenalidomide 5 µM, pomalidomide 1 µM"}, "ZFP91 [9]": {"biological_target": "T6, ZFP91 (Homo sapiens, UniProt Q96JP5+Q96SW2)", "test": "TMT proteomics MM1s cells: ZFP91 abundance", "settings": "5 h vs DMSO, thalidomide 10 µM, lenalidomide 5 µM, pomalidomide 1 µM"}, "SALL4 [10]": {"biological_target": "T1, SALL4", "test": "TMT proteomics Kelly cells: SALL4 abundance", "settings": "5 h vs DMSO, thalidomide 10 µM, lenalidomide 5 µM, pomalidomide 1 µM"}, "SQRDL; SQOR": {"system": "SQRDL; SQOR", "test": "TMT proteomics MM1s cells: SQRDL abundance", "settings": "5 h vs DMSO, pomalidomide 1 µM"}, "ZFP91 [11]": {"biological_target": "T6, ZFP91", "test": "TMT proteomics Kelly cells: ZFP91 abundance", "settings": "5 h vs DMSO, thalidomide 10 µM, lenalidomide 5 µM, pomalidomide 1 µM"}, "CLIC4": {"system": "CLIC4", "test": "TMT proteomics Kelly cells: CLIC4 abundance", "settings": "5 h vs DMSO, pomalidomide 1 µM"}, "COX5A": {"system": "COX5A", "test": "TMT proteomics Kelly cells: COX5A abundance", "settings": "5 h vs DMSO, pomalidomide 1 µM"}, "GZF1": {"biological_target": "GZF1 (Homo sapiens, UniProt Q96SW2+Q9H116)", "test": "TMT proteomics SK-N-DZ cells: GZF1 abundance", "settings": "5 h vs DMSO, pomalidomide 1 µM, lenalidomide 5 µM, CC-220 0.1 µM, dBET57 1 µM"}, "ARPP19": {"system": "ARPP19", "test": "TMT proteomics Kelly cells: ARPP19 abundance", "settings": "5 h vs DMSO, pomalidomide 1 µM"}, "RAB28 [12]": {"biological_target": "T5, RAB28", "test": "TMT proteomics SK-N-DZ cells: RAB28 abundance", "settings": "5 h vs DMSO, pomalidomide 1 µM, lenalidomide 5 µM, CC-220 0.1 µM, dBET57 1 µM"}, "ZFP91 [13]": {"biological_target": "T6, ZFP91", "test": "TMT proteomics SK-N-DZ cells: ZFP91 abundance", "settings": "5 h vs DMSO, pomalidomide 1 µM, lenalidomide 5 µM, CC-220 0.1 µM, dBET57 1 µM"}, "ZNF98": {"biological_target": "ZNF98 (Homo sapiens, UniProt A6NK75+Q96SW2)", "test": "TMT proteomics SK-N-DZ cells: ZNF98 abundance", "settings": "5 h vs DMSO, pomalidomide 1 µM, lenalidomide 5 µM, CC-220 0.1 µM, dBET57 1 µM"}, "ZBTB39 [14]": {"biological_target": "T2, ZBTB39", "test": "TMT proteomics SK-N-DZ cells: ZBTB39 abundance", "settings": "5 h vs DMSO, pomalidomide 1 µM, lenalidomide 5 µM, CC-220 0.1 µM, dBET57 1 µM"}, "ILF3": {"system": "ILF3", "test": "Rescue proteomics SK-N-DZ cells: ILF3 abundance", "settings": "1 µM pomalidomide, 5 h vs DMSO, rescue experiment (source data 13)"}, "TLN2": {"system": "TLN2", "test": "Rescue proteomics SK-N-DZ cells: TLN2 abundance", "settings": "1 µM pomalidomide, 5 h vs DMSO, rescue experiment (source data 13)"}, "RTN4": {"system": "RTN4", "test": "Rescue proteomics SK-N-DZ cells: RTN4 abundance", "settings": "1 µM pomalidomide, 5 h vs DMSO, rescue experiment (source data 13)"}, "GAP43": {"system": "GAP43", "test": "Rescue proteomics SK-N-DZ cells: GAP43 abundance", "settings": "1 µM pomalidomide, 5 h vs DMSO, rescue experiment (source data 13)"}, "[15]": {"system": "HIST1H4A; HIST1H4F; HIST1H4D; HIST1H4J; HIST2H4A; HIST2H4B; HIST1H4H; HIST1H4C; HIST4H4; HIST1H4E; HIST1H4I; HIST1H4B; HIST1H4K; HIST1H4L", "test": "Rescue proteomics SK-N-DZ cells: histone H4 abundance", "settings": "1 µM pomalidomide, 5 h vs DMSO, rescue experiment (source data 13)"}, "SALL4 [16]": {"biological_target": "T1, SALL4", "test": "Western blot of SALL4 in Kelly, SK-N-DZ, HEK293T and H661 cells", "settings": "increasing concentrations, 24 h"}, "SALL4 [17]": {"biological_target": "T1, SALL4", "test": "Western blot of SALL4 in H9 hESC", "assay_type": "cell-based", "design": "endogenous in cells; host or cells: Kelly, H9 hESC, SK-N-DZ cells", "settings": "increasing doses, 24 h"}}}
{"smiles": "Nc1cccc2c1C(=O)N(C1CCC(=O)NC1=O)C2=O", "note": "(stereo not shown) [pomalidomide]", "values": [{"measurement": "logFC SALL4", "setting": "SALL4 [1]", "value": -1.645}, {"measurement": "logFC FAM83F", "setting": "FAM83F", "value": -1.309}, {"measurement": "logFC ZBTB39", "setting": "ZBTB39 [2]", "value": -1.656}, {"measurement": "logFC DTWD1", "setting": "DTWD1", "value": -1.822}, {"measurement": "logFC VRTN", "setting": "VRTN", "value": -0.4677}, {"measurement": "number of substrates identified (rank order)", "setting": "[3]; H9 hESC proteomics", "value": "Thal < Len << Pom"}, {"measurement": "proteins degraded upon treatment (besides SALL4)", "setting": "[3]; H9 hESC, 5 h, 5 µM lenalidomide, 1 µM pomalidomide", "value": "ZFP91 ([An et al., 2017]) and the largely uncharacterized proteins ZBTB39, FAM83F, WIZ, RAB28, and DTWD1"}, {"measurement": "substrates robustly degraded (each drug in addition to the preceding one)", "setting": "[3]; proteomics across hESC, MM1s, Kelly, SK-N-DZ cells", "value": "ZBTB39, ZFP91, DTWD1, and ZNF653"}, {"measurement": "SALL4 degradation in CRBN-/- cells", "setting": "SALL4 [4]", "value": "no degradation of SALL4 was observed"}, {"measurement": "rank order in binding observed with ZnF2", "setting": "[5]", "value": "Pom >Thal >> Len"}, {"measurement": "degradation of mmSALL4 in mESC", "setting": "mmSALL4", "value": "does not promote degradation of mmSALL4"}, {"measurement": "earliest time of SALL4 degradation post treatment", "setting": "SALL4 [6]; 1 or 5 µM pomalidomide", "value": 4, "unit": "h"}, {"measurement": "time post washout at which SALL4 recovered to levels close to pre-treatment", "setting": "SALL4 [6]; pomalidomide 8 h then washout", "value": 48, "unit": "h"}, {"measurement": "plasma half-life (t1/2)", "setting": "[7]", "value": "~ 9 h"}, {"measurement": "Cmax", "setting": "[7]; read-out: maximum plasma concentration (Cmax)", "value": 50, "unit": "nM"}, {"measurement": "logFC IKZF1", "setting": "IKZF1", "value": -2.094}, {"measurement": "logFC IKZF3", "setting": "IKZF3", "value": -2.635}, {"measurement": "logFC RAB28", "setting": "RAB28 [8]", "value": -1.819}, {"measurement": "logFC ZFP91", "setting": "ZFP91 [9]", "value": -1.964}, {"measurement": "logFC SALL4", "setting": "SALL4 [10]", "value": -1.873}, {"measurement": "logFC SQRDL; SQOR", "setting": "SQRDL; SQOR", "value": 0.2873}, {"measurement": "logFC ZFP91", "setting": "ZFP91 [11]", "value": -0.9865}, {"measurement": "logFC CLIC4", "setting": "CLIC4", "value": -0.176}, {"measurement": "logFC COX5A", "setting": "COX5A", "value": 0.352}, {"measurement": "logFC GZF1", "setting": "GZF1", "value": -0.5859}, {"measurement": "logFC ARPP19", "setting": "ARPP19", "value": 0.611}, {"measurement": "logFC RAB28", "setting": "RAB28 [12]", "value": -1.455}, {"measurement": "logFC ZFP91", "setting": "ZFP91 [13]", "value": -1.944}, {"measurement": "logFC ZNF98", "setting": "ZNF98", "value": -1.487}, {"measurement": "logFC ZBTB39", "setting": "ZBTB39 [14]", "value": -1.448}, {"measurement": "logFC ILF3", "setting": "ILF3", "value": -0.0757}, {"measurement": "logFC TLN2", "setting": "TLN2", "value": -0.06109}, {"measurement": "logFC RTN4", "setting": "RTN4", "value": -0.1703}, {"measurement": "logFC GAP43", "setting": "GAP43", "value": -0.1693}, {"measurement": "logFC HIST1H4A (histone H4 genes)", "setting": "[15]", "value": -0.1522}, {"measurement": "SALL4 protein levels (western blot)", "setting": "SALL4 [16]", "value": "dose-dependent decrease in SALL4 protein levels"}, {"measurement": "SALL4 protein levels (western blot)", "setting": "SALL4 [17]", "value": "dose-dependent decrease in protein levels"}]}
